The subject of experiment [1] is hMena and hMena^+11a protein in BxPC3 cells. The experiment in a line: Western blot of hMena expression after EGF and erlotinib treatment, BxPC3. The class given is cell-based, human. Here is the method:
(§1) Cell treatments. Cells were grown in six-well plates to confluence in RPMI supplemented with 10% fetal bovine serum. After 18 hours in serum-free medium, the cells were treated with different amounts of rhEGF (Promega) for 24 hours. Erlotinib (10 μmol/L) was added 2 hours before EGF treatment. Western blot analyses. Cells were lysed as reported (32). Lysates (30 or 100 μg) were resolved on 10% polyacrylamide gel and transferred to nitrocellulose membranes (GE Healthcare, Piscataway, N.J.). Membranes were blocked in 5% non-fat milk in Tris-buffered saline (TBS) containing 0.1% Tween 20 (TBS-T) for 1 hour at room temperature, incubated overnight with relevant antibodies, washed, and probed with species-specific secondary antibodies coupled to horseradish peroxidase, and detected by enhanced chemiluminescence (Amersham Biosciences).
On the technique in general: Immunoblotting shows a protein as a band on a membrane.

For experiment [2], the system named is hMena and hMena^+11a protein in Panc1 cells. The experiment is described as follows: Western blot of hMena expression after EGF and erlotinib treatment, Panc1. In kind it is cell-based, human. As to conditions: EGF 50 and 100 ng/ml, 24 hours. The procedure: as §1
Experiment [3] has as its system hMena and hMena^+11a in breast cancer cell lines. As to conditions: cited from earlier work.
Experiment [4] deals with L3.6 μl human pancreatic cancer cell line. The experiment is described as follows: Proliferation assay (cellular ATP, Vialight). As to conditions: erlotinib 1 μmol/L, 24 hours, serum-free media. The class given is cell-based.
Description: (§5) The effects of increasing concentrations of erlotinib (0.1 to 10 μmol/L) on cell proliferation were assessed by measuring the intracellular ATP content using the Vialight assay. Results are expressed as percentage inhibition of ATP incorporation relative to untreated cells. […] Cell proliferation was determined by measurement of cellular ATP levels with a high sensitivity cell proliferation/cytotoxicity kit (Vialight Plus, Cambrex Bio Sci Rockland Inc., Rockland, Me.). Briefly, cells were plated in 96-well plates at a density of 1×10^4 per well and exposed 24 hours later to various concentrations of erlotinib (0.1-10 μmol/L) in serum-free media. After 24 hours nucleotide (ATP) releasing reagent (100 μl) was added to each well and the plate was incubated for 10 min at room temperature. Cell lysate (180 μl) was transferred to a luminescence compatible plate. The 96-well plates were read using a Perkin Elmer LS 50B luminometer. ATP levels in cells were normalized to levels in untreated control cultures.
Experiment [5] concerns BxPC3 pancreatic cancer cell line. The experiment in a line: Proliferation assay (cellular ATP, Vialight). In kind it is cell-based. As to conditions: Homo sapiens, BXPC-3; erlotinib 1 μmol/L, 24 hours, serum-free media.
Description: as §5
Experiment [6] deals with T3M4 pancreatic cancer cell line. The experiment is described as follows: Proliferation assay (cellular ATP, Vialight). In kind it is cell-based. As to conditions: Homo sapiens, erlotinib 1 μmol/L, 24 hours, serum-free media.
Description: as §5
Experiment [7] has as its system PACA44 pancreatic cancer cell line. The experiment is described as follows: Proliferation assay (cellular ATP, Vialight). In kind it is cell-based. As to conditions: Homo sapiens, PaCa-44; erlotinib 1 μmol/L, 24 hours, serum-free media.
Description: as §5
Experiment [8] deals with PT45 pancreatic cancer cell line. The experiment is described as follows: Proliferation assay (cellular ATP, Vialight). The class given is cell-based, human. As to conditions: erlotinib 10 μmol/L.
Description: as §5
Experiment [9] has as its system Panc1 pancreatic cancer cell line. The experiment is described as follows: Proliferation assay (cellular ATP, Vialight). In kind it is cell-based, human. As to conditions: erlotinib 10 μmol/L.
Description: (§6) The effects of increasing concentrations of erlotinib (0.1 to 10 μmol/L) on cell proliferation were assessed by measuring the intracellular ATP content using the Vialight assay. Results are expressed as percentage inhibition of ATP incorporation relative to untreated cells. […] Proliferation assays. Cell proliferation was determined by measurement of cellular ATP levels with a high sensitivity cell proliferation/cytotoxicity kit (Vialight Plus, Cambrex Bio Sci Rockland Inc., Rockland, Me.). Briefly, cells were plated in 96-well plates at a density of 1×10^4 per well and exposed 24 hours later to various concentrations of erlotinib (0.1-10 μmol/L) in serum-free media. After 24 hours nucleotide (ATP) releasing reagent (100 μl) was added to each well and the plate was incubated for 10 min at room temperature. Cell lysate (180 μl) was transferred to a luminescence compatible plate. The 96-well plates were read using a Perkin Elmer LS 50B luminometer. ATP levels in cells were normalized to levels in untreated control cultures.
The subject of experiment [10] is MiaPaCa-2 pancreatic cancer cell line. The experiment is described as follows: Proliferation assay (cellular ATP, Vialight). In kind it is cell-based, human. As to conditions: erlotinib 10 μmol/L.
Description: as §6
The subject of experiment [11] is Hs766T pancreatic cancer cell line. The experiment is described as follows: Proliferation assay (cellular ATP, Vialight). As to conditions: erlotinib 10 μmol/L. The class given is cell-based, human.
Description: as §6
In experiment [12] the test system is BxPC3 cells. The experiment is described as follows: Proliferation assay after hMena siRNA knock-down, BxPC3. The class given is cell-based, human. Here is the method: (§2) Silencing of hMena reduces the baseline growth rate in BxPC3 compared with the growth rate of untransfected cells and cells transfected with non specific siRNA (45% vs 100%, P<0.01). […] Proliferation assays were conducted 72 h after the siRNA transfection.
(§3) Proliferation assays. Cell proliferation was determined by measurement of cellular ATP levels with a high sensitivity cell proliferation/cytotoxicity kit (Vialight Plus, Cambrex Bio Sci Rockland Inc., Rockland, Me.). Briefly, cells were plated in 96-well plates at a density of 1×10^4 per well and exposed 24 hours later to various concentrations of erlotinib (0.1-10 μmol/L) in serum-free media. After 24 hours nucleotide (ATP) releasing reagent (100 μl) was added to each well and the plate was incubated for 10 min at room temperature. Cell lysate (180 μl) was transferred to a luminescence compatible plate. The 96-well plates were read using a Perkin Elmer LS 50B luminometer. ATP levels in cells were normalized to levels in untreated control cultures.
(§4) Small interfering RNA treatment. Cells in exponential growth phase were transfected with 100 nmol/L hMena-specific pooled small interfering RNA (siRNA) duplexes (siENA SMART pool) or control non-specific siRNA (Dharmacon, Lafayette, Colo.) using LipofectAMINE 2000 reagent (Invitrogen, Paisley, United Kingdom). […]

For experiment [13], the system named is Panc1 cells. The experiment is described as follows: Proliferation assay after hMena siRNA knock-down, Panc1. The class given is cell-based, human. As to conditions: hMena siRNA construct (48 h) plus erlotinib (100 nM, 24 h). The procedure: as §2, §3, §4

Where only a bound is given, the exact number is not on record here.

On to “EGF: Recombinant human EGF purchased from Promega (NSDSECPLSHDGYCLHDGVCMYIEALDKYACNCVVGYIGERCQYRDLKWWELR; UniProt P01133 971-1023, looked up)”, for which the “hMena and hMena^+11a protein level” value is “clearly increased” in experiment [1] (EGF 50 and 100 ng/ml, 24 hours, BxPC3); “clearly increased” in experiment [2]. Further, the “hMena and hMena^+11a expression” value in experiment [3] (EGF treatment of breast cancer cell lines) is “up-regulation”. Moreover, the “hMena^+11a expression and phosphorylation” value in experiment [3] (HER2 activation by EGF and NRG1 treatment, breast cancer cell lines) was “up-regulation and phosphorylation”.
A word on the inhibition: it is how much of the control response was suppressed. Low readings indicate little suppression, high ones strong suppression. For `C#Cc1cccc(Nc2ncnc3cc(OCCOC)c(OCCOC)cc23)c1` [erlotinib], the inhibition at 1 µM in experiment [4], in [5], in experiment [6] and in experiment [7] was at least 50% throughout. Also, the growth rate result in [8], in experiment [9], in [10] and in experiment [11] was “not significantly affected” in each case. In addition, the hMena expression entry in [1] (erlotinib (10 μmol/L, 2 hours before EGF) added to EGF-treated BxPC3 cells) is “down regulated”. For the same molecule, the “proliferation, combined exposure” value is “additive decrease” in [12] (hMena siRNA construct (48 h) plus erlotinib (100 nM, 24 h), BxPC3) and “did not” in experiment [13]. Besides, the cell proliferation result in experiment [12] (hMena-silenced BxPC3 cells treated with erlotinib 0.1 μM/L for 24 h) is on record as “dramatic decrease”.
Turning to `COc1cc2ncnc(Nc3cccc(Cl)c3)c2cc1OC` [AG1478], in [3] (pre-treatment of breast cancer cell lines before EGF), the “EGF-promoted up-regulation of hMena and hMena^+11a and increase of phosphorylated hMena^+11a” value is listed as “inhibited”.

These data come from patent US20120028252A1, “HUMAN MENA ISOFORMS SERVE AS MARKERS OF EPITHELIAL TO MESENCHYMAL TRANSITION AND SENSITIVITY TO EGFR INHIBITION IN HUMAN CANCER CELLS” (priority 2008, published 2012).
